This test concerns corneal endothelial cells. In words: Corneal endothelial cell counting by specular microscopy. The format is in vivo, rabbits. The settings on record: for higher cell density compared to negative control group / higher cell density compared to placebo group: 25 ng/mL (group B); for degeneration rate / effect on slowing down and stopping apoptosis and/or autophagy: 25 ng/mL. From the text:
All experiments were designed and carried out in a randomized, double blind manner using placebos. Rabbits were housed for one week prior to the study, fed on standard laboratory food and allowed free access to water in a room at standard temperature and humidity conditions in a 12-h light/12-h dark cycle.
Counting Corneal Cell number:
Any excess was discarded, and a fresh batch prepared for the next 15-days. Effects of the eye drop on corneal endothelium as well as cell numbers and shapes were observed by means of specular microscopy (NIDEK-CEM 530, Japan) at the end of months 0, 1, 3 and 6. Rabbits were euthanatized by an intravenous injection of Tanax (0.3 mL/kg). Vitreous (0.2 mL) was aspirated with a 25-gauge needle attached to a 5-mL disposable syringe, driven at 3.0 mm from the limbus, and guided toward the center of the eyeball, taking care to avoid bleeding when the needle was introduced (vitreous samples were stored at −80° C. until the analysis). Eye tissue was fixed with 4% formaldehyde and embedded in paraffin for histopathological assessment. The individual values for three replicates were determined and the mean values were reported.
All analyses were carried out using GraphPad Prism 5.0 (GraphPad Software, San Diego, Calif., USA). Differences were considered to be significant at a level of P 0.001.

Setting [1] is: compared to the negative control group.

For `CC(C)(O)[C@@H]1CC[C@](C)([C@H]2[C@@H](O)C[C@@]3(C)[C@@H]4C[C@H](O)[C@H]5C(C)(C)[C@@H](O)CC[C@@]56C[C@@]46CC[C@]23C)O1` [cycloastragenol, Cycloastragenol], the “higher cell density compared to negative control group” value (month 1) is “about 4%”, the “higher cell density compared to negative control group” value (month 3) is roughly 18% and the “higher cell density compared to negative control group” value (month 6) was roughly 19%. The “higher cell density compared to placebo group” value runs as follows: (month 1) “about 4%”; (month 3) roughly 18%; (month 6) roughly 20%. Further, the degeneration rate runs as follows: under setting [1], 0%; (compared to the placebo group) 0%. Further, the “effect on slowing down and stopping apoptosis and/or autophagy” value reads like this: under setting [1], 100%; (compared to the placebo group) 100%.

These data come from patent US20210154210A1, “Ophthalmic Formulations and Uses Thereof” (priority 2018, published 2021).
